In ChEMBL document CHEMBL5036332, “Glucose-Lipopeptide Conjugates Reveal the Role of Glucose Modification Position in Complexation and the Potential of Malignant Melanoma Therapy” (J Med Chem, 2021):
Calls of active or inactive are those of the source. The rule behind the calls is not given here. *1 amine or outer side, *2 acyl side, *3 side chain or, on linkers, in order; H or OH if unused. Where a SMILES comes first, the peptide text is derived from it. Side-chain parts run from the residue outwards. The star is where a group is joined. NH(CH2)3O(βDGlc) = OC[C@H]1O[C@@H](OCCCN*)[C@H](O)[C@@H](O)[C@@H]1O; Glutaryl = O=C(CCCC(=O)[*:2])[*:1]; Lauroyl = CCCCCCCCCCCC(=O)*

Assays:
[1] = Toxicity in BALB/c mouse implanted in mouse B16-F10 cells assessed as pathological changes in liver at 15 mg/kg, ip administered for days by H& E staining based assay; assay type: organism-based; settings: in vivo
Homo sapiens = species: Homo sapiens; test: Binding affinity to membrane (unknown origin) assessed as binding free energy
[2] = Toxicity in BALB/c mouse implanted in mouse B16-F10 cells assessed as pathological changes in heart at 15 mg/kg, ip administered for days by H& E staining based assay; assay type: organism-based; settings: in vivo
[3] = molecular target: T1, Solute carrier family 2, facilitated glucose transporter member 1 (Homo sapiens) (UniProt P11166); test: Binding affinity to GLUT1 (unknown origin) membrane assessed as free energy
T1 sequence (whole entry): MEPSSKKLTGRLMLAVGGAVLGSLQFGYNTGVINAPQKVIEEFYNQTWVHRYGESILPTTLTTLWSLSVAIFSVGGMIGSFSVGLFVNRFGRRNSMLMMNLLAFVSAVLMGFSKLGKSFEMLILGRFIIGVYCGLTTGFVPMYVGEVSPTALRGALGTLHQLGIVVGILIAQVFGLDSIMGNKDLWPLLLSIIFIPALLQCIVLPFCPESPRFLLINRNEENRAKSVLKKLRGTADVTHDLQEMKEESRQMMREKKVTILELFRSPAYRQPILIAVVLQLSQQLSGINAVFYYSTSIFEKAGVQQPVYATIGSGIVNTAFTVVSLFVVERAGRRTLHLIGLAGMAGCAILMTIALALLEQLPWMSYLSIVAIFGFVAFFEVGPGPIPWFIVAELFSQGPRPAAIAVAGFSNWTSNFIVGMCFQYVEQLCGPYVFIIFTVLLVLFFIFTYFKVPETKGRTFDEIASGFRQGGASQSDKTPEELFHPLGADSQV

B16-F10 [4] = test: Induction of GLUT1-mediated mouse B16-F10 cell cytotoxicity assessed as cell viability at 3.125 uM incubated for 24 hrs by CCK-8 assay
B16-F10 [5] = test: Cytotoxicity against mouse B16-F10 cells assessed as LDH release at 3.125 to 6.25 uM incubated for 24 hrs by LDH assay; assay type: functional, cell-based; settings: dose 3.125-6.25 µM
B16-F10 [6] = test: Induction of cell membrane disruption in mouse B16-F10 cells assessed as shrunken morphology at 5 uM incubated for 24 hrs by scanning electron microscopy; assay type: functional, cell-based
B16-F10 [7] = test: Antitumor activity against mouse B16-F10 cells implanted in KM mouse assessed as metastatic nodules in lungs at 10 mg/kg, iv administered for every 2 days measured after 9 days; assay type: functional, organism-based; settings: time 9.0 day
B16-F10 [8] = test: Induction of cell membrane disruption in mouse B16-F10 cells incubated for 24 hrs by SYTO 9/PI staining based fluorescence microscopy; assay type: functional
[9] = molecular target: T1, Solute carrier family 2, facilitated glucose transporter member 1 (Homo sapiens); test: Induction of GLUT1-mediated human HeLa cell cytotoxicity assessed as cell viability at 12.5 uM incubated for 24 hrs by CCK-8 assay
B16-F10 [10] = test: Antimetastatic activity against mouse B16-F10 cells implanted in KM mouse assessed as reduction lung metastatic nodules at 200 microL of 10 mg/kg, iv administered once every 2 days by H and E staining method; assay type: functional, organism-based; settings: time 2.0 day
[11] = molecular target: T1, Solute carrier family 2, facilitated glucose transporter member 1 (Homo sapiens); test: Induction of GLUT1-mediated human A549 cell cytotoxicity assessed as cell viability at 12.5 uM incubated for 24 hrs by CCK-8 assay
B16-F10 [12] = test: Anti-migration activity against mouse B16-F10 cells assessed as inhibition of spheroid migration at 2.5 uM after 3 days by crystal violet staining based assay; assay type: functional, cell-based; settings: time 3.0 day
[13] = Toxicity in BALB/c mouse implanted in mouse B16-F10 cells assessed as body weight change at 15 mg/kg, ip administered for days; assay type: organism-based; settings: in vivo
[14] = molecular target: T1, Solute carrier family 2, facilitated glucose transporter member 1 (Homo sapiens); test: Binding affinity to GLUT1 (unknown origin) assessed as binding free energy
B16-F10 [15] = test: Induction of cell membrane disruption in mouse B16-F10 cells assessed as membrane permeability at 5 uM incubated for 24 hrs by trypan blue staining based light microscopy; assay type: functional
B16-F10 [16] = test: Antiinvasive activity against mouse B16-F10 cells assessed as inhibition of cell migration at 0.75 to 1.5 microM incubated for 72 hrs by transwell migration assay; assay type: functional, cell-based; settings: dose 0.75-1.5 µM
B16-F10 [17] = test: Antitumor activity against mouse B16-F10 cells implanted in BALB/c mouse assessed as apoptotic cells in tumor tissue at 15 mg/kg, ip administered for 12 days by TUNEL assay; assay type: functional, organism-based; settings: time 12.0 day
[18] = Toxicity in KM mouse implanted in mouse B16-F10 cells assessed as body weight change at 10 mg/kg, iv administered for days; assay type: organism-based; settings: in vivo
B16-F10 [19] = test: Antitumor activity against mouse B16-F10 cells implanted in BALB/c mouse assessed as reduction in tumor volume at 15 mg/kg, ip administered for every 2 days; assay type: functional, organism-based; settings: time 2.0 day
[20] = Stability in 10% fetal bovine serum measured after 24 hrs; assay type: ADME, cell-free, Bos taurus; settings: cattle
B16-F10 [21] = test: Cytotoxicity against mouse B16-F10 cells assessed as inhibition of spheroid proliferation at 5 uM after 3 days by 3D-shperoid assay relative to control; assay type: functional, cell-based; settings: time 3.0 day
[22] = Toxicity in BALB/c mouse implanted in mouse B16-F10 cells assessed as pathological changes in spleen at 15 mg/kg, ip administered for days by H& E staining based assay; assay type: organism-based; settings: in vivo
B16-F10 [23] = test: Cytotoxicity against mouse B16-F10 cells assessed as cell viability after 24 hrs by CCK-8 assay; assay type: functional, cell-based; settings: B16-F10, 24 h
[24] = molecular target: T1, Solute carrier family 2, facilitated glucose transporter member 1 (Homo sapiens); test: Induction of GLUT1-mediated HEK293T cytotoxicity assessed as cell viability at 3.125 uM incubated for 24 hrs by CCK-8 assay
B16-F10 [25] = test: Antiinvasive activity against mouse B16-F10 cells assessed as inhibition of cell migration at 0.75 microM incubated for 72 hrs by Matrigel based transwell invasion assay; assay type: functional
B16-F10 [26] = test: Cytotoxicity against GLUT1 - knocked down mouse B16-F10 cells assessed as cell viability after 24 hrs by CCK-8 assay; assay type: functional, cell-based
B16-F10 [27] = test: Antiproliferative activity against mouse B16-F10 cells assessed as inhibition of colony formation incubated for 12 days by crystal violet dye based assay; assay type: functional, cell-based; settings: B16-F10, 288 h

SMILES	Activity [1]	deltaG (Homo sapiens) [kcal/mol]	Activity [2]	deltaG [3] [kcal/mol]	Activity (B16-F10 [4])	Activity (B16-F10 [5])	Activity (B16-F10 [6])	Activity (B16-F10 [7])	Activity (B16-F10 [8])	Activity [9]	Activity (B16-F10 [10])	Activity [11]	Activity (B16-F10 [12])	Activity [13]	deltaG [14] [kcal/mol]	Activity (B16-F10 [15])	Activity (B16-F10 [16])	Activity (B16-F10 [17])	Activity [18]	Activity (B16-F10 [19])	further results
CCCCCCCCCCCC(=O)N[C@@H](CCCNC(=N)N)C(=O)NCC(=O)N[C@@H](Cc1c[nH]c2ccccc12)C(=O)N[C@@H](Cc1ccccc1)C(=O)N[C@@H](CCCNC(=N)N)C(=O)N[C@@H](C)C(=O)N[C@@H](CCSC)C(=O)N[C@@H](CCCNC(=N)N)C(=O)N[C@@H](CO)C(=O)N[C@H](C(=O)N[C@@H](C)C(=O)N[C@@H](CCCNC(=N)N)C(=O)N[C@@H](Cc1ccccc1)C(=O)N[C@H](C(=O)N[C@@H](C)C(=O)N[C@@H](CCCNC(=N)N)C(=O)N[C@@H](CCC(=O)O)C(=O)N[C@@H](CCCNC(=N)N)C(=O)N[C@@H](CC(C)C)C(=O)N[C@@H](CCCNC(=N)N)C(=O)N[C@@H](CCC(=O)O)C(=O)N[C@@H](Cc1cnc[nH]1)C(=O)N[C@@H](CC(C)C)C(N)=O)[C@@H](C)CC)[C@@H](C)CC (HELM PEPTIDE1{[CCCCCCCCCCCC(=O)[*:2]].R.G.W.F.R.A.M.R.S.I.A.R.F.I.A.R.E.R.L.R.E.H.L.[am]}$$$$V2.0)	Non-Toxic	-65.7	Non-Toxic	-67.5	Active	Active	Active	inactive	Active	Active	inactive	Active	Active	Non-Toxic	-66.4	Active	inactive	Active	Non-Toxic	inactive	Stability [20]: Stable; Activity (B16-F10 [21]): Active; Activity [22]: Non-Toxic; IC50 (B16-F10 [23]): 3000 nM; Activity [24]: Active
CCCCCCCCCCCC(=O)N[C@@H](CCCNC(=N)N)C(=O)NCC(=O)N[C@@H](Cc1c[nH]c2ccccc12)C(=O)N[C@@H](Cc1ccccc1)C(=O)N[C@@H](CCCNC(=N)N)C(=O)N[C@@H](C)C(=O)N[C@@H](CCSC)C(=O)N[C@@H](CCCNC(=N)N)C(=O)N[C@@H](CO)C(=O)N[C@H](C(=O)N[C@@H](C)C(=O)N[C@@H](CCCCNC(=O)CCCC(=O)NCCCO[C@@H]1O[C@H](CO)[C@@H](O)[C@H](O)[C@H]1O)C(=O)N[C@@H](Cc1ccccc1)C(=O)N[C@H](C(=O)N[C@@H](C)C(=O)N[C@@H](CCCNC(=N)N)C(=O)N[C@@H](CCC(=O)O)C(=O)N[C@@H](CCCNC(=N)N)C(=O)N[C@@H](CC(C)C)C(=O)N[C@@H](CCCNC(=N)N)C(=O)N[C@@H](CCC(=O)O)C(=O)N[C@@H](Cc1cnc[nH]1)C(=O)N[C@@H](CC(C)C)C(N)=O)[C@@H](C)CC)[C@@H](C)CC (Lauroyl-RGWFRAMRSIAK([Glutaryl-NH(CH2)3O(βDGlc)])FIARERLREHL-NH2)	Non-Toxic	-76.6	Non-Toxic	-79.6	Active	Active	Active	Active	Active	Active	inactive	Active	Active	Non-Toxic	-78	Active	Active	Active	Non-Toxic	Active	Activity (B16-F10 [25]): Active; Activity (B16-F10 [26]): inactive; IC50 (B16-F10 [27]): 370 nM; Stability [20]: Stable; Activity (B16-F10 [21]): Active; Activity [22]: Non-Toxic; IC50 (B16-F10 [23]): 1900 nM; Activity [24]: inactive
